Laboratory results as given in patent US20260285879A1, “CDK INHIBITOR AND CRYSTAL FORM OF PHARMACEUTICALLY ACCEPTABLE SALT THEREOF, AND USE THEREOF” (priority 2023, published 2026).

Legend:
[1] = Anhydrous crystalline form transformation test; format: physicochemical; conditions: mixed sample of equal amounts of crystalline form A-I and A-IV
A2780 = assay: In vitro tumor cell proliferation inhibition (CTG test); format: cell-based, human; conditions: ovarian cancer cells A2780
Protocol: (§1) The tumor cell strains were cultured in an incubator at 37° C. with 5% CO2. The cells were sub-cultured regularly, and those in the logarithmic growth phase were taken for plating. The cells were stained with trypan blue and the viable cells were counted. The cell concentration was adjusted to an appropriate level. The cell suspension was added to each well of the culture plate, and the culture medium without cells was added to the blank control wells. The culture plate was incubated overnight in an incubator at 37° C., 5% CO2, and 100% RH. […] The compound working solution was added to the cell culture plate, and DMSO at the same final concentration was added to the solvent control wells. Then the plate was returned to the incubator for 4-7 days of culture. The cell viability was detected according to the instructions of the Promega CellTiter-Glo (CTG) Luminescent Cell Viability Assay Kit (Promega-G7573).
(§2) The inhibition rate (IR) of the test compound was calculated using the following equation: […]
(§3) The inhibition rates of the compound at different concentrations were calculated in Excel, then the inhibition curve was plotted using GraphPad Prism software and relevant parameters, including the minimum inhibition rate, maximum inhibition rate, and IC50 were calculated. The IC50 was calculated using the following equation:
(§4) [formula] • X: log (concentration) • Y: response value, negatively correlated with X • HillSlope: slope factor

COLO205 = assay: as above; format: cell-based, human; conditions: Rb+ colorectal cancer cells COLO205
Protocol: as §1, §2, §3, §4

HCT116 = assay: as above; format: cell-based, human; conditions: Rb+ colorectal cancer cells HCT116
Protocol: as §1, §2, §3, §4

HT-29 = assay: as above; format: cell-based, human; conditions: Rb+ colorectal cancer cells HT-29
Protocol: as §1, §2, §3, §4

Hep3B(Rb−) = assay: as above; format: cell-based, human; conditions: Hep3B(Rb−) liver cancer cells
Protocol: as §1, §2, §3, §4

Huh-7 = assay: as above; format: cell-based, human; conditions: Rb+ liver cancer cells Huh-7
Protocol: as §1, §2, §3, §4

JHH-7 = assay: as above; format: cell-based, human; conditions: Rb+ liver cancer cells JHH-7
Protocol: as §1, §2, §3, §4

MDA-MB-453 = assay: as above; format: cell-based, human; conditions: 4-7 days
Protocol: as §1, §2, §3, §4

MDA-MB-468 (Rb−) = assay: as above; format: cell-based, human; conditions: 4-7 days
Protocol: as §1, §2, §3, §4

MOLM-13 = assay: as above; format: cell-based, human; conditions: hematological tumor cells MOLM-13
Protocol: as §1, §2, §3, §4

MV-4-11 = assay: as above; format: cell-based, human; conditions: hematological tumor cells MV-4-11
Protocol: as §1, §2, §3, §4

NCI-H211 = assay: as above; format: cell-based, human; conditions: small cell lung cancer cells NCI-H211
Protocol: as §1, §2, §3, §4

SK-MEL-5 = assay: as above; format: cell-based, human; conditions: melanoma SK-MEL-5
Protocol: as §1, §2, §3, §4

CC(=O)c1c(C)c2cnc(Nc3ccc4c(c3)OC[C@@H]3CN(C5CCN(C)CC5)CCN43)nc2n(C2CCCC2)c1=O [Compound A]
~100%: Maximum Inhibition Rate (%) (MDA-MB-453)
exceeding 99%: maximum inhibition rate (Hep3B(Rb−)) | Maximum Inhibition Rate (%) (MDA-MB-468 (Rb−))
significant inhibitory effect: inhibitory effect (Hep3B(Rb−))
form A-I: Experimental results (crystalline form by XRPD) ([1]; n-Butanol/Anisole (v:v = 1:1), 25° C.) | Experimental results (crystalline form by XRPD) ([1]; n-Butanol/Anisole (v:v = 1:1), 37° C.) | Experimental results (crystalline form by XRPD) ([1]; suspension in n-Butanol, 25° C.) | Experimental results (crystalline form by XRPD) ([1]; suspension in n-Butanol, 37° C.)
good inhibitory activity: inhibitory activity (A2780) | inhibitory activity (COLO205) | inhibitory activity (HCT116) | inhibitory activity (HT-29) | inhibitory activity (Huh-7) | inhibitory activity (JHH-7) | inhibitory activity (MOLM-13) | inhibitory activity (MV-4-11) | inhibitory activity (NCI-H211) | inhibitory activity (SK-MEL-5)
